Source: ChEMBL document CHEMBL1201862, “PubChem BioAssay data set” (2004)
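1) Cells in 96-well plates. 2) Compound, 48 h, 5 concentrations. 3) Linear interpolation between surrounding doses. 4) Unreached endpoint = highest concentration. At the GI50, growth is halved.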 Active and inactive are the calls of the source. No stated cut-off is given here; in the data, active = GI50 up to about 1.1 µM and inactive = higher.

What was measured:
Assay in all cases: NCI anticancer screen, dose series, 48 h
A549 = system: A549
CCRF-CEM = system: CCRF-CEM
U-251 = system: U-251
OVCAR-3 = system: OVCAR-3
K562 = system: K562
ACHN = system: ACHN
NCI-H23 = system: NCI-H23
M14 = system: M14
SW-620 = system: SW-620
EKVX = system: EKVX
NCI-H460 = system: NCI-H460
HOP-92 = system: HOP-92
IGROV-1 = system: IGROV-1
A498 = system: A498
SNB-19 = system: SNB-19
UACC-62 = system: UACC-62
UACC-257 = system: UACC-257
RPMI-8226 = system: RPMI-8226
SNB-75 = system: SNB-75
NCI-H522 = system: NCI-H522

| SMILES | GI50 (A549) | GI50 (CCRF-CEM) | GI50 (U-251) | GI50 (OVCAR-3) | GI50 (K562) | GI50 (ACHN) | GI50 (NCI-H23) | GI50 (M14) | GI50 (SW-620) | GI50 (EKVX) | GI50 (NCI-H460) | GI50 (HOP-92) | GI50 (IGROV-1) | GI50 (A498) | GI50 (SNB-19) | GI50 (UACC-62) | GI50 (UACC-257) | GI50 (RPMI-8226) | GI50 (SNB-75) | GI50 (NCI-H522) |
| --- | --- | --- | --- | --- | --- | --- | --- | --- | --- | --- | --- | --- | --- | --- | --- | --- | --- | --- | --- | --- |
| CC/C(CC(=O)CCC(=O)Nc1c(C)cccc1C)=N\NC(=O)NN | > 100 µM (inactive) | > 100 µM (inactive) | > 100 µM (inactive) | > 100 µM (inactive) | > 100 µM (inactive) | > 100 µM (inactive) | > 100 µM (inactive) | > 100 µM (inactive) | > 100 µM (inactive) | > 100 µM (inactive) | > 100 µM (inactive) | > 100 µM (inactive) | > 100 µM (inactive) | > 100 µM (inactive) | > 100 µM (inactive) | > 100 µM (inactive) | > 100 µM (inactive) |  |  |  |
| S=C1Cc2c([nH]c3ccccc23)-c2ccccc2N1 | 23 µM (inactive) | > 100 µM (inactive) |  | 32.6 µM (inactive) | 47.5 µM (inactive) | 23.6 µM (inactive) | 79.1 µM (inactive) | > 100 µM (inactive) | > 100 µM (inactive) | 40.4 µM (inactive) | 35.4 µM (inactive) | 32.3 µM (inactive) | 65.3 µM (inactive) |  | 34.4 µM (inactive) | 72.3 µM (inactive) | 55 µM (inactive) | > 100 µM (inactive) | 26.2 µM (inactive) |  |
| COc1cc([C@H]2CC(=O)C[C@@H](c3cc(OC)c(OC)c(OC)c3)C23C(=O)c2ccccc2C3=O)cc(OC)c1OC | > 100 µM (inactive) | > 100 µM (inactive) | > 100 µM (inactive) | > 100 µM (inactive) | > 100 µM (inactive) | > 100 µM (inactive) | > 100 µM (inactive) | > 100 µM (inactive) | > 100 µM (inactive) | 91.8 µM (inactive) | > 100 µM (inactive) | > 100 µM (inactive) | > 100 µM (inactive) |  | > 100 µM (inactive) | > 100 µM (inactive) | > 100 µM (inactive) | > 100 µM (inactive) | 45.1 µM (inactive) | > 100 µM (inactive) |
| OCCN(C1=NCCN1)/[N+](=C\c1ccccn1)[CH-]c1ccccn1 | > 100 µM (inactive) | > 100 µM (inactive) | > 100 µM (inactive) | > 100 µM (inactive) | > 100 µM (inactive) | > 100 µM (inactive) | > 100 µM (inactive) | > 100 µM (inactive) | > 100 µM (inactive) | > 100 µM (inactive) | > 100 µM (inactive) |  | > 100 µM (inactive) | > 100 µM (inactive) |  | > 100 µM (inactive) | > 100 µM (inactive) | 12.1 µM (inactive) | > 100 µM (inactive) | > 100 µM (inactive) |
| COc1cc(C(=O)n2c3ccc(Br)cc3c3nc4ccccc4nc32)cc(OC)c1OC |  | > 100 µM (inactive) | > 100 µM (inactive) | > 100 µM (inactive) | > 100 µM (inactive) | 37.9 µM (inactive) | > 100 µM (inactive) | > 100 µM (inactive) | > 100 µM (inactive) | > 100 µM (inactive) | > 100 µM (inactive) | 54.5 µM (inactive) | > 100 µM (inactive) |  | 51.6 µM (inactive) | 42.6 µM (inactive) | > 100 µM (inactive) | > 100 µM (inactive) | 26.2 µM (inactive) | 36.6 µM (inactive) |
| NC(N)=NCCC[C@H](N)C(=O)NCC(=O)N[C@@H](CC(=O)O)c1ncc(NC(=O)C(F)(F)F)o1 | > 25 µM (inactive) | > 25 µM (inactive) | > 25 µM (inactive) | > 25 µM (inactive) | > 25 µM (inactive) | > 25 µM (inactive) | > 25 µM (inactive) | > 25 µM (inactive) | > 25 µM (inactive) | > 25 µM (inactive) | > 25 µM (inactive) |  | > 25 µM (inactive) | > 25 µM (inactive) |  | > 25 µM (inactive) | > 25 µM (inactive) |  | > 25 µM (inactive) | > 25 µM (inactive) |
| CN(C)N1C(=O)CC2(CCN(CCCC(=O)c3ccc(F)cc3)CC2)C1=O | > 100 µM (inactive) |  | > 100 µM (inactive) | > 100 µM (inactive) | > 100 µM (inactive) | > 100 µM (inactive) | > 100 µM (inactive) | > 100 µM (inactive) | > 100 µM (inactive) |  | > 100 µM (inactive) |  | > 100 µM (inactive) | > 100 µM (inactive) | > 100 µM (inactive) | > 100 µM (inactive) | > 100 µM (inactive) | > 100 µM (inactive) | > 100 µM (inactive) | > 100 µM (inactive) |
| COC(=O)CCC1CCc2c(OC)ccc(O)c2C1=O (centres undefined) | > 100 µM (inactive) | > 100 µM (inactive) | > 100 µM (inactive) | > 100 µM (inactive) | > 100 µM (inactive) | > 100 µM (inactive) | > 100 µM (inactive) | > 100 µM (inactive) | > 100 µM (inactive) | > 100 µM (inactive) | > 100 µM (inactive) |  | > 100 µM (inactive) | > 100 µM (inactive) | > 100 µM (inactive) | > 100 µM (inactive) | > 100 µM (inactive) | > 100 µM (inactive) | 66.4 µM (inactive) | > 100 µM (inactive) |
| COc1cc2c(cc1OC)C(=O)/C(=C/c1ccc(O)cc1)CC2 | > 10 µM (inactive) | 1.97 µM (inactive) | > 10 µM (inactive) | > 10 µM (inactive) | > 10 µM (inactive) | > 10 µM (inactive) | > 10 µM (inactive) | > 10 µM (inactive) | > 10 µM (inactive) | > 10 µM (inactive) | > 10 µM (inactive) | > 10 µM (inactive) | > 10 µM (inactive) |  | > 10 µM (inactive) | > 10 µM (inactive) | > 10 µM (inactive) | > 10 µM (inactive) |  |  |
| CCC(=O)N1NC(=O)C(CC)(CC)C1=O | > 100 µM (inactive) | > 100 µM (inactive) | > 100 µM (inactive) | > 100 µM (inactive) | > 100 µM (inactive) | > 100 µM (inactive) | > 100 µM (inactive) | > 100 µM (inactive) | > 100 µM (inactive) | > 100 µM (inactive) | > 100 µM (inactive) |  | > 100 µM (inactive) |  | > 100 µM (inactive) | > 100 µM (inactive) | > 100 µM (inactive) | > 100 µM (inactive) | 36.8 µM (inactive) | > 100 µM (inactive) |
| Cc1cccc(C2SCc3nc4ccccc4n32)c1 (centres undefined) | 37 µM (inactive) | 31.8 µM (inactive) | 19.7 µM (inactive) | 17.8 µM (inactive) | 14.2 µM (inactive) | 24.3 µM (inactive) | > 10 µM (inactive) | 26.7 µM (inactive) | 39.2 µM (inactive) | 18.9 µM (inactive) | 27.7 µM (inactive) | 14.7 µM (inactive) | 24.5 µM (inactive) |  |  | 27.8 µM (inactive) |  | 13.9 µM (inactive) | 2 µM (inactive) | 17.7 µM (inactive) |
| COc1cc2c(cc1OC)[C@@H](Nc1ccc(F)cc1)C1COC(=O)[C@@H]1C2c1cc(OC)c(O)c(OC)c1 (some centres undefined) | 0.0484 µM (active) | 0.14 µM (active) | 0.493 µM (active) | 23.4 µM (inactive) | 1.19 µM (inactive) | 0.12 µM (active) | 0.632 µM (active) | 1.24 µM (inactive) | 0.512 µM (active) | > 38.2 µM (inactive) | < 0.0204 µM (active) |  | 21.7 µM (inactive) | 1.14 µM (inactive) | 1 µM (active) | 0.589 µM (active) | 5.53 µM (inactive) | 0.16 µM (active) | 2.5 µM (inactive) | 2.2 µM (inactive) |
| O=P(O)(CN1CCN(CP(=O)(O)c2ccccc2)CCN(CP(=O)(O)c2ccccc2)CC1)c1ccccc1 | 47.6 µM (inactive) | > 100 µM (inactive) | 47.8 µM (inactive) | 56.6 µM (inactive) | > 100 µM (inactive) | > 100 µM (inactive) | > 100 µM (inactive) |  | 45.6 µM (inactive) | > 100 µM (inactive) | 36 µM (inactive) |  | > 100 µM (inactive) | 9.16 µM (inactive) | > 100 µM (inactive) | > 10 µM (inactive) |  | 51.4 µM (inactive) | > 100 µM (inactive) |  |
| O=C(NC1=C(Cl)C(=O)c2ccccc2C1=O)C(=O)C(C(=O)c1ccc2ccccc2c1)C1OC(=O)c2ccccc21 (centres undefined) | 4.72 µM (inactive) | 2.87 µM (inactive) | 4.38 µM (inactive) | 2.7 µM (inactive) | 3.55 µM (inactive) | 7.29 µM (inactive) | 2.9 µM (inactive) | 2.18 µM (inactive) | 5.13 µM (inactive) | 12 µM (inactive) | 2.96 µM (inactive) |  | 7.73 µM (inactive) | 4.68 µM (inactive) | 6.03 µM (inactive) | 1.73 µM (inactive) | 2.19 µM (inactive) | 2.05 µM (inactive) | 2.87 µM (inactive) | 3.94 µM (inactive) |
| O=NN(CCCl)C(=O)NCc1ccc[n+]([O-])c1 | 93.8 µM (inactive) | 65.8 µM (inactive) | 43.2 µM (inactive) | > 100 µM (inactive) | > 100 µM (inactive) | > 100 µM (inactive) | > 100 µM (inactive) | > 100 µM (inactive) | > 100 µM (inactive) | > 100 µM (inactive) | 45.7 µM (inactive) | 15.8 µM (inactive) | > 100 µM (inactive) |  |  | 11.7 µM (inactive) | > 100 µM (inactive) | > 100 µM (inactive) |  |  |
